Consider six compounds from patent publication US8871753B2, “Macrocyclic compounds and their use as kinase inhibitors” (Incyte Corporation, priority 2008, dated 2014).

What all share (assay type): biochemical
Experiment [1] concerns the target T1, human JAK1 (a.a. 837-1142) (Homo sapiens, UniProt P23458).
T1 construct: human JAK1 (a.a. 837-1142); His tag (N); made in house; host or cells: insect cells (baculovirus)
Briefly: In vitro JAK kinase assay (HTRF, phosphorylation of a biotinylated peptide), JAK1. The following applies: read-out: JAK1 IC50. The procedure, abridged:
(§1)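 Phosphorylation of a biotinylated peptide by the JAK kinase domain, detected by HTRF with Eu-Py20 and SA-APC. ATP was 90 μM for JAK1, 30 μM for JAK2 and 3 μM for JAK3. Reactions ran 1 h at room temperature and were stopped with EDTA, followed by 40 min antibody binding.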

For experiment [2], the target named is T2, human JAK2 (a.a. 828-1132) (Homo sapiens, UniProt O60674).
T2 construct: JAK2 (a.a. 828-1132); His tag (N); made in house; host or cells: insect cells (baculovirus)
T2 sequence (O60674 828-1132): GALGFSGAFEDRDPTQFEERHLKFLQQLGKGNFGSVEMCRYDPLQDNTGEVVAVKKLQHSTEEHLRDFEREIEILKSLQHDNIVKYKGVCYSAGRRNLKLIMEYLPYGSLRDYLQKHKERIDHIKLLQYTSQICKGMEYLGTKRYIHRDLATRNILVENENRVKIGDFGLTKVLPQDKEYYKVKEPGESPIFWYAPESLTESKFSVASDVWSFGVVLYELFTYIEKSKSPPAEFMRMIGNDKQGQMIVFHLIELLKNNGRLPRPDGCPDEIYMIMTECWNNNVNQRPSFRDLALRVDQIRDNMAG
Description: In vitro JAK kinase assay (HTRF, phosphorylation of a biotinylated peptide), JAK2. Put shortly:
as §1

Experiment [3] concerns the target TYK2 (Homo sapiens, UniProt P29597). Description: TYK2 kinase inhibition (Table A1).
In experiment [4] the target is T3, human JAK3 (a.a. 781-1124) (Homo sapiens, UniProt P52333).
T3 construct: JAK3 (a.a. 781-1124); His tag (N); made in house; host or cells: insect cells (baculovirus)
T3 sequence (P52333 781-1124): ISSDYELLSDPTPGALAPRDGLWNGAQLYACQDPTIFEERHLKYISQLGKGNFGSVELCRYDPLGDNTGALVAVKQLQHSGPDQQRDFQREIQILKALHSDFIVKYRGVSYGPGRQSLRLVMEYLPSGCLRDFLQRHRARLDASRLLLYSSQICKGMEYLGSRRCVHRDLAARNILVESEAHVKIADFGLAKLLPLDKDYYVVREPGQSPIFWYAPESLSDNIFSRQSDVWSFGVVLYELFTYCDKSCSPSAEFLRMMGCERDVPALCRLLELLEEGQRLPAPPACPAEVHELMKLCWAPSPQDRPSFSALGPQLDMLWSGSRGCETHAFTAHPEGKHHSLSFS
Briefly: In vitro JAK kinase assay (HTRF, phosphorylation of a biotinylated peptide), JAK3. The procedure, abridged:
as §1
Background: Time-resolved FRET reads energy transfer from a long-lived donor to a nearby acceptor.

For experiment [5], the target named is T4, Recombinant Human Anaplastic Lymphoma Kinase (Homo sapiens, UniProt Q9UM73).
T4 construct: purchased Invitrogen, Carlsbad, Calif
T4 sequence (Q9UM73 19-1620): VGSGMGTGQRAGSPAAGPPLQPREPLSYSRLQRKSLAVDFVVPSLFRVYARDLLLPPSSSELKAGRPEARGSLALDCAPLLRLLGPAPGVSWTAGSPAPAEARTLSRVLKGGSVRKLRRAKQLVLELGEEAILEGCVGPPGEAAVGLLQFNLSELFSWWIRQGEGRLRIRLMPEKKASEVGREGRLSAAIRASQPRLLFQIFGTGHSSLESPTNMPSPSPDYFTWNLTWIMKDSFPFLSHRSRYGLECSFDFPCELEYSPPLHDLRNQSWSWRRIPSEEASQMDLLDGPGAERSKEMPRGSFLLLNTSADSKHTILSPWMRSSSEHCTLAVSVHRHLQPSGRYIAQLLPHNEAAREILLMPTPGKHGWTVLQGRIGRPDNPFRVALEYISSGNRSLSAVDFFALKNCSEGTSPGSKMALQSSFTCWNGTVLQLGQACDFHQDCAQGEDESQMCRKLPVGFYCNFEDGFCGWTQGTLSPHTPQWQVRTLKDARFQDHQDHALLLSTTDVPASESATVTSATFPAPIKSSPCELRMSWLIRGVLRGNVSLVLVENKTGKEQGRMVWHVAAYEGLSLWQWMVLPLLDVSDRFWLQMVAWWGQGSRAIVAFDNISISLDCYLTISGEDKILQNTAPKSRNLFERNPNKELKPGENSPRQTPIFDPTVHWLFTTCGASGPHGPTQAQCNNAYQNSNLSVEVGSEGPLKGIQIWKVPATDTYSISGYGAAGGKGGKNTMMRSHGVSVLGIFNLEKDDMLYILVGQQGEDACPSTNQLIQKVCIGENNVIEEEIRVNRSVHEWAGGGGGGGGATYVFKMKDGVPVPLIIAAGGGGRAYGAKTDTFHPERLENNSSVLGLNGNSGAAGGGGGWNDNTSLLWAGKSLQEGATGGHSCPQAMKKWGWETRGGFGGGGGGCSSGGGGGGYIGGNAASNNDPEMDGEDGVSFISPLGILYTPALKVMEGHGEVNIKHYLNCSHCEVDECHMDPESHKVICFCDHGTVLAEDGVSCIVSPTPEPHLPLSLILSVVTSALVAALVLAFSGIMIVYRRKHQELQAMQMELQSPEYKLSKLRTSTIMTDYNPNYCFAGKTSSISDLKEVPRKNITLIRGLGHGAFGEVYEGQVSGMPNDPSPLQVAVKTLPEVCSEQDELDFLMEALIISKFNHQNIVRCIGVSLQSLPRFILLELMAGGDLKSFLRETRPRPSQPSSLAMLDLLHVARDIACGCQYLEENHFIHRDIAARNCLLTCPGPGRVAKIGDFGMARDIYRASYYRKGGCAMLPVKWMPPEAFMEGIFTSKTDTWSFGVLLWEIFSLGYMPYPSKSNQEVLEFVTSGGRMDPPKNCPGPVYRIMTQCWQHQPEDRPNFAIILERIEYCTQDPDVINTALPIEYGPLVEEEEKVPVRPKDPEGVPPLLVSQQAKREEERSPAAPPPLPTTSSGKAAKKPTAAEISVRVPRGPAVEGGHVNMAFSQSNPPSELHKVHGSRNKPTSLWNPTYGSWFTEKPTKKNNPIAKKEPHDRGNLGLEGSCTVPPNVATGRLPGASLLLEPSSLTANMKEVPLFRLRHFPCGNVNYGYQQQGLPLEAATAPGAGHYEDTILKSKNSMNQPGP
Description: ALK HTRF kinase assay. Put shortly:
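Recombinant human ALK with biotinylated peptide substrate; phosphorylation detected by HTRF using Eu-labelled anti-phosphotyrosine antibody and streptavidin-allophycocyanin. IC50 from a sigmoidal fit with Hill slope.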

Setting [6] is: Table B1, cells without percent sign.
The mark [7] stands for this setting: method AA1 (90 μM ATP) or AA2 (1000 μM ATP), not stated per value.
Setting [8] is: method AA1 (30 μM ATP) or AA2 (1000 μM ATP), not stated per value.
Where [9] appears, read: method AA1 (3 μM ATP) or AA2 (1000 μM ATP), not stated per value.
The mark [10] stands for this setting: compound at 500 nM or 1 mM, 90 μM ATP.

SMILES strings stand for the structures. Structures can show the parent of a compound that is named as a salt. Where two headings read alike, the source gives them in different places.

Sequence of TYK2 (P29597 whole entry): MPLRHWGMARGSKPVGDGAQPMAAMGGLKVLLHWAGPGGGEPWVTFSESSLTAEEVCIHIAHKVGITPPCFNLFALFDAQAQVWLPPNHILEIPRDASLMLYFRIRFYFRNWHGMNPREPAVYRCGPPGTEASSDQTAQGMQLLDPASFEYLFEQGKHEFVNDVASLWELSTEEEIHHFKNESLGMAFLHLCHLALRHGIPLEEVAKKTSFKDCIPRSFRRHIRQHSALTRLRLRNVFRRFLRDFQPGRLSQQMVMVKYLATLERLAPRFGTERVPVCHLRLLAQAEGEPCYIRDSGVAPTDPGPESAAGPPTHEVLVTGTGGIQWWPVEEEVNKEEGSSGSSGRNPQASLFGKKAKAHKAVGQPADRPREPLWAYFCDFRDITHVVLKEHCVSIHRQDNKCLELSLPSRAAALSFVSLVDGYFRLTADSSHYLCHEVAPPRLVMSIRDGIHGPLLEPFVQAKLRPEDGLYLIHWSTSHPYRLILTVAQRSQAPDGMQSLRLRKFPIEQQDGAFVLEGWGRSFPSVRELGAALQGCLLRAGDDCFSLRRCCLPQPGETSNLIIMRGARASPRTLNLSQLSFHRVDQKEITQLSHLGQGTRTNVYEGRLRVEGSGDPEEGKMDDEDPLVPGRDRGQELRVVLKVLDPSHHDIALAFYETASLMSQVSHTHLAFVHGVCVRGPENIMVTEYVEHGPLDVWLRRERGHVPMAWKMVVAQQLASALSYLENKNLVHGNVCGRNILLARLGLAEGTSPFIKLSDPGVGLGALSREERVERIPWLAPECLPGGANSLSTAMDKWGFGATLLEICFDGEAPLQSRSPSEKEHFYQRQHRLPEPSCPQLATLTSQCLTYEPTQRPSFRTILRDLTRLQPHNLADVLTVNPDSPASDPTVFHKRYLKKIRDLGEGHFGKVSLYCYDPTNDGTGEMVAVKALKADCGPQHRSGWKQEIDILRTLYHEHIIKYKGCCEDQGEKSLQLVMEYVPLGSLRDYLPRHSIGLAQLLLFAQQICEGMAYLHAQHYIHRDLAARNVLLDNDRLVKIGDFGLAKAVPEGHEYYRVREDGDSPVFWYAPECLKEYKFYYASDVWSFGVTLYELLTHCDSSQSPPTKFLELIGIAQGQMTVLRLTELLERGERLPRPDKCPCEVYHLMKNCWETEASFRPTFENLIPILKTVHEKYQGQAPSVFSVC
T1 sequence (P23458 849-1154): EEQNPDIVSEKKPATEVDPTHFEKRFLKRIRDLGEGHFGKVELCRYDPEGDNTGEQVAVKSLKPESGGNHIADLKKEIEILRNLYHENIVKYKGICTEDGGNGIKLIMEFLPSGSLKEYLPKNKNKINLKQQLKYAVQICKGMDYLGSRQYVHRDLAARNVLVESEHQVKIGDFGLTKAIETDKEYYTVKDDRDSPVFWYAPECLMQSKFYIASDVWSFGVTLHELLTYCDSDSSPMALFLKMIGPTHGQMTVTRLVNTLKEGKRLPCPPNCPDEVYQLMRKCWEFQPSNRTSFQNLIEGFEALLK

Regarding `CN1CCN(C(=O)c2cc3cc(c2)Nc2nc(ncc2Cl)Nc2cccc(c2)CC3)CC1` [Example B8, 6-Chloro-11-[(4-methylpiperazin-1-yl)carbonyl]-2,4,8,22-tetraazatetracyclo[14.3.1.1(3,7).1(9,13)]docosa-1(20),3(22),4,6,9(21),10,12,16,18-nonaene trifluoroacetate], the IC50 (as a rule, the midpoint of a concentration-inhibition curve) in experiment [1] (Table B1) was 500 nM; in experiment [2] (Table B1), 350 nM; in experiment [3] (Table B1), more than 1000 nM; in experiment [4] (Table B1) it was more than 1000 nM; in experiment [5] (setting [6]) it was more than 1000 nM.
For the compound `Cn1cnc(S(=O)(=O)N2CCC(CC(=O)Nc3ccc4cc3CCc3cncc(c3)Nc3ncc(Cl)c(n3)N4)CC2)c1` [Example A229, N-[6-Chloro-2,4,8,18,22-pentaazatetracyclo[14.3.1.1(3,7).1(9,13)]docosa-1(20),3(22),4,6,9(21),10,12,16,18-nonaen-12-yl]-2-{1-[(1-methyl-1H-imidazol-4-yl)sulfonyl]piperidin-4-yl}acetamide bis(trifluoroacetate)], the IC50 in experiment [1] (setting [7]) was 8 nM; in experiment [2] (setting [8]) it was 75 nM; in experiment [3], 120 nM; in experiment [4] (setting [9]), more than 400 nM. Besides, the “ALK % of inhibition at a concentration of 500 nM or 1 mM” value (“ALK % of inhibition” for short) in experiment [5] (setting [10]) is listed as 55%.
On to `O=C(CC1CCN(C(=O)c2cnoc2C2CC2)CC1)Nc1ccc2cc1CCc1cncc(c1)Nc1ncc(Cl)c(n1)N2` [Example A213, N-[6-Chloro-2,4,8,18,22-pentaazatetracyclo[14.3.1.1(3,7).1(9,13)]docosa-1(20),3(22),4,6,9(21),10,12,16,18-nonaen-12-yl]-2-{1-[(5-cyclopropylisoxazol-4-yl)carbonyl]piperidin-4-yl}acetamide bis(trifluoroacetate)], for which the IC50 in experiment [1] (setting [7]) is 58 nM; in experiment [2] (setting [8]), more than 200 nM; in experiment [3], more than 200 nM; in experiment [4] (setting [9]), more than 200 nM. Also, the “ALK % of inhibition” value in experiment [5] (setting [10]) came to 27%.
With `O=C(Nc1ccc(CCO)cc1)c1cc2cc(c1)Nc1nc(ncc1Cl)Nc1cccc(c1)CC2` [Example B10, 6-Chloro-N-[4-(2-hydroxyethyl)phenyl]-2,4,8,22-tetraazatetracyclo[14.3.1.1(3,7).1(9,13)]docosa-1(20),3(22),4,6,9(21),10,12,16,18-nonaene-11-carboxamide trifluoroacetate], the IC50 in experiment [1] (Table B1) came out at 68 nM; in experiment [2] (Table B1) it was 12 nM; in experiment [3] (Table B1), 172 nM; in experiment [4] (Table B1), 51 nM; in experiment [5] (setting [6]) it was 1960 nM.
For `Cc1ncoc1C(=O)N1CCC(CN(C)Cc2ccc3cc2CCc2cncc(c2)Nc2ncc(Cl)c(n2)N3)CC1` [Example B347, 1-[6-Chloro-2,4,8,18,22-pentaazatetracyclo[14.3.1.1(3,7).1(9,13)]docosa-1(20),3(22),4,6,9(21),10,12,16,18-nonaen-12-yl]-N-methyl-N-({1-[(4-methyl-1,3-oxazol-5-yl)carbonyl]piperidin-4-yl}methyl)methanamine tris(trifluoroacetate)], the IC50 in experiment [1] (Table B1) was 58 nM; in experiment [2] (Table B1), 371 nM; in experiment [3] (Table B1), more than 400 nM; in experiment [4] (Table B1) it was more than 400 nM. In experiment [5] (percentage inhibition of the example compound at a concentration of 500 nM or 1 mM (not specified which)), the “ALK % of inhibition” value amounted to 45%.
As for `Cc1nc(S(=O)(=O)Nc2cc3cc(c2)OCCSc2cccc(c2)Nc2nc(ncc2Cl)N3)cn1C` [Example D69, N-[6-Chloro-17-oxa-14-thia-2,4,8,24-tetraazatetracyclo[16.3.1.1(3,7).1(9,13)]tetracosa-1(22),3(24),4,6,9(23),10,12,18,20-nonaen-20-yl]-1,2-dimethyl-1H-imidazole-4-sulfonamide bis(trifluoroacetate)], the half-maximal inhibitory concentration (IC50) worked out at 3.5 nM in experiment [1] (Table D1); 1.4 nM in experiment [2] (Table D1); 8.4 nM in experiment [3] (Table D1); 8.6 nM in experiment [4] (Table D1); 160 nM in experiment [5] (Table D1, 90 μM ATP).
